Measured values as given in patent publication US12054483B2, “Small molecule inhibitors of DYRK/CLK and uses thereof” (Arizona Board of Regents on Behalf of the University of …, priority 2018, dated 2024).

Target: DYRK1A (Homo sapiens, UniProt Q13627)
Assay: Affinity testing of compounds with DYRK1A (KD)
Type: binding
Details: DYRK1A affinity key classes

Row | SMILES | Kd
1 | Cc1cc(-c2ccc3ncc(-c4ccc(CN5CCN[C@H](C)C5)cc4)n3n2)ccn1 [Compound 94, (R)-3-(4-((3-methylpiperazin-1-yl)methyl)phenyl)-6-(2-methylpyridin-4-yl)imidazo[1,2-b]pyridazine] | 0.5 to 100 nM
2 | FC1(F)CCCN(Cc2ccc(-c3cnc4ccc(-c5ccncc5)nn34)cc2)C1 [Compound 95] | 501 to 10000 nM
3 | c1cc(-c2ccc3ncc(-c4ccc(CN5CCOCC5)cc4)n3n2)ccn1 [Compound 96, 4-(4-(6-(pyridin-4-yl)imidazo[1,2-b]pyridazin-3-yl)benzyl)morpholine] | 101 to 500 nM
4 | c1cc(-c2ccc3ncc(-c4ccc(CN5CCCCC5)cc4)n3n2)ccn1 [Compound 97, 3-(4-(piperidin-1-ylmethyl)phenyl)-6-(pyridin-4-yl)imidazo[1,2-b]pyridazine] | 0.5 to 100 nM
5 | FC1(F)CCN(Cc2ccc(-c3cnc4ccc(-c5ccncc5)nn34)cc2)C1 [Compound 98, 3-(4-((3,3-difluoropyrrolidin-1-yl)methyl)phenyl)-6-(pyridin-4-yl)imidazo[1,2-b]pyridazine] | 101 to 500 nM
6 | FC1CN(Cc2ccc(-c3cnc4ccc(-c5ccncc5)nn34)cc2)C1 [Compound 99, 3-(4-((3-fluoroazetidin-1-yl)methyl)phenyl)-6-(pyridin-4-yl)imidazo[1,2-b]pyridazine] | 0.5 to 100 nM
7 | CN1CCN(Cc2ccc(-c3cnc4ccc(-c5ccncc5)nn34)cc2)CC1 [Compound 100, 3-(4-((4-methylpiperazin-1-yl)methyl)phenyl)-6-(pyridin-4-yl)imidazo[1,2-b]pyridazine] | 101 to 500 nM
8 | OC1CCCN(Cc2ccc(-c3cnc4ccc(-c5ccncc5)nn34)cc2)C1 (centres unmarked) [Compound 101, 1-(4-(6-(pyridin-4-yl)imidazo[1,2-b]pyridazin-3-yl)benzyl)piperidin-3-ol] | 101 to 500 nM
9 | FC1(F)CN(Cc2ccc(-c3cnc4ccc(-c5ccncc5)nn34)cc2)C1 [Compound 102, 3-(4-((3,3-difluoroazetidin-1-yl)methyl)phenyl)-6-(pyridin-4-yl)imidazo[1,2-b]pyridazine] | 101 to 500 nM
10 | c1cc(-c2ccc3ncc(-c4ccc(CN5CCCC5)cc4)n3n2)ccn1 [Compound 103, 6-(pyridin-4-yl)-3-(4-(pyrrolidin-1-ylmethyl)phenyl)imidazo[1,2-b]pyridazine] | 101 to 500 nM
11 | CC(=O)N1CCN(Cc2ccc(-c3cnc4ccc(-c5ccncc5)nn34)cc2)CC1 [Compound 104, 1-(4-(4-(6-(pyridin-4-yl)imidazo[1,2-b]pyridazin-3-yl)benzyl)piperazin-1-yl)ethan-1-one] | 0.5 to 100 nM
12 | Fc1cnccc1-c1ccc2ncc(-c3ccc(CN4CCOCC4)cc3)n2n1 [Compound 105, 4-(4-(6-(3-fluoropyridin-4-yl)imidazo[1,2-b]pyridazin-3-yl)benzyl)morpholine] | 501 to 10000 nM
13 | N#Cc1cnccc1-c1ccc2ncc(-c3ccc(CN4CCOCC4)cc3)n2n1 [Compound 106, 4-(3-(4-(morpholinomethyl)phenyl)imidazo[1,2-b]pyridazin-6-yl)nicotinonitrile] | 501 to 10000 nM
14 | COc1cc(-c2ccc3ncc(-c4ccc(CN5CCOCC5)cc4)n3n2)ccn1 [Compound 107, 4-(4-(6-(2-methoxypyridin-4-yl)imidazo[1,2-b]pyridazin-3-yl)benzyl)morpholine] | 101 to 500 nM
15 | Nc1cc(-c2ccc3ncc(-c4ccc(CN5CCOCC5)cc4)n3n2)ccn1 [Compound 108, 4-(3-(4-(morpholinomethyl)phenyl)imidazo[1,2-b]pyridazin-6-yl)pyridin-2-amine] | 0.5 to 100 nM
16 | Fc1cnccc1-c1ccc2ncc(-c3ccc(CN4CCCCC4)cc3)n2n1 [Compound 109, 6-(3-fluoropyridin-4-yl)-3-(4-(piperidin-1-ylmethyl)phenyl)imidazo[1,2-b]pyridazine] | 501 to 10000 nM
17 | Nc1cc(-c2ccc3ncc(-c4ccc(CN5CCCCC5)cc4)n3n2)ccn1 [Compound 110, 4-(3-(4-(piperidin-1-ylmethyl)phenyl)imidazo[1,2-b]pyridazin-6-yl)pyridin-2-amine] | 0.5 to 100 nM

Continued, values first:

Row | Kd | SMILES
18 | 501 to 10000 nM | Nc1cc(-c2ccn3ncc(-c4ccc(CN5CCOCC5)cc4)c3n2)ccn1 [Compound 112, 4-(3-(4-(morpholinomethyl)phenyl)pyrazolo[1,5-a]pyrimidin-5-yl)pyridin-2-amine]
19 | 501 to 10000 nM | O=c1cc(-c2ccn3ncc(-c4ccc(CN5CCOCC5)cc4)c3n2)cc[nH]1 [Compound 113, 4-(3-(4-(morpholinomethyl)phenyl)pyrazolo[1,5-a]pyrimidin-5-yl)pyridin-2(1H)-one]
20 | 101 to 500 nM | Nc1cc(-c2ccn3ncc(-c4ccc(CN5CCOCC5)s4)c3n2)ccn1 [Compound 114, 4-(3-(5-(morpholinomethyl)thiophen-2-yl)pyrazolo[1,5-a]pyrimidin-5-yl)pyridin-2-amine]
21 | 0.5 to 100 nM | Cc1nc2ccc(-c3ccncc3)nc2n1-c1ccc(CO)cc1 [Compound 115, (4-(2-methyl-5-(pyridin-4-yl)-3H-imidazo[4,5-b]pyridin-3-yl)phenyl)methanol]
22 | 0.5 to 100 nM | CC(=O)N1CCN(Cc2ccc(-n3c(C)nc4ccc(-c5ccncc5)nc43)cc2)CC1 [Compound 116, 1-(4-(4-(2-methyl-5-(pyridin-4-yl)-3H-imidazo[4,5-b]pyridin-3-yl)benzyl)piperazin-1-yl)ethan-1-one]
23 | 101 to 500 nM | Cc1nc2ccc(-c3ccncc3)nc2n1-c1ccc(CN2[C@H](C)COC[C@@H]2C)cc1 [Compound 117, (3S,5R)-3,5-dimethyl-4-(4-(2-methyl-5-(pyridin-4-yl)-3H-imidazo[4,5-b]pyridin-3-yl)benzyl)morpholine]
24 | 0.5 to 100 nM | Cc1nc2ccc(-c3ccncc3)nc2n1-c1ccc(CN2C[C@H](C)O[C@@H](C)C2)cc1 [Compound 118, (2S,6S)-2,6-dimethyl-4-(4-(2-methyl-5-(pyridin-4-yl)-3H-imidazo[4,5-b]pyridin-3-yl)benzyl)morpholine]
25 | 0.5 to 100 nM | Cc1nc2ccc(-c3ccncc3)nc2n1-c1ccc(CN2C[C@@H](C)N(C)[C@@H](C)C2)cc1 [Compound 119, 2-methyl-5-(pyridin-4-yl)-3-(4-(((3R,5S)-3,4,5-trimethylpiperazin-1-yl)methyl)phenyl)-3H-imidazo[4,5-b]pyridine]
26 | 0.5 to 100 nM | Cc1nc2ccc(-c3ccncc3)nc2n1-c1ccc(CN2CCOC(C)(C)C2)cc1 [Compound 120, 2,2-dimethyl-4-(4-(2-methyl-5-(pyridin-4-yl)-3H-imidazo[4,5-b]pyridin-3-yl)benzyl)morpholine]
27 | 0.5 to 100 nM | Cc1nc2ccc(-c3ccncc3)nc2n1-c1ccc(CN2CCC3(COC3)C2)cc1 [Compound 121, 6-(4-(2-methyl-5-(pyridin-4-yl)-3H-imidazo[4,5-b]pyridin-3-yl)benzyl)-2-oxa-6-azaspiro[3.4]octane]
28 | 0.5 to 100 nM | Cc1nc2ccc(-c3ccncc3)nc2n1-c1ccc(CN2CC3CCC(C2)O3)cc1 [Compound 122, 3-(4-(2-methyl-5-(pyridin-4-yl)-3H-imidazo[4,5-b]pyridin-3-yl)benzyl)-8-oxa-3-azabicyclo[3.2.1]octane]
29 | 101 to 500 nM | Cc1nc2ccc(-c3ccncc3)nc2n1-c1ccc(CN2[C@@H]3COC[C@H]2CC(=O)C3)cc1 [Compound 123, (1R,5S)-9-(4-(2-methyl-5-(pyridin-4-yl)-3H-imidazo[4,5-b]pyridin-3-yl)benzyl)-3-oxa-9-azabicyclo[3.3.1]nonan-7-one]
